This is an account of results in patent publication US4109088A, “2-(Indenyloxymethyl) morpholine derivatives” (priority 1975, dated 1978).

The subject of data set [1] is methamphetamine-induced stereotyped behavior. In words: Methamphetamine-induced stereotyped behavior in rats (Experiment 6). In kind it is in vivo, rats (male Wistar strain, aged 8 weeks). Here is the method: Effects of the compounds on methamphetamine-induced stereotyped behavior in rats (male Wistar strain, aged 8 weeks) were examined according to the method of Ueki et al. (Folia Pharmacologica Japonica, 68, 716, 1972).
The rats were placed in separate plastic cages for 1 hour to be accustomed to the experimental conditions and then the tested compounds were given intraperitoneally followed, after 1 hour, by an intraperitoneal application of methamphetamine (5 mg/kg). The influence of the tested compounds on the agitated behavior of the rats were observed every 30 minutes till 5 hours thereafter.

The subject of data set [2] is reserpine-induced hypothermia. In words: Reserpine-induced hypothermia in mice (Experiment 7). Particulars: p.o.
Data set [3] is described as follows: Pharmacological activity of the isolated isomer salts (general statement). In kind it is in vivo. As to conditions: statement in words.
The test system of data set [4] is methamphetamine-induced stereotyped behavior. In words: Potentiation of methamphetamine-induced stereotyped behavior in rats (Experiment 1). As to conditions: for minimal effective dose: Rattus norvegicus, read-out: minimum effective dose causing statistically significant potentiation of the methamphetamine-induced stereotype; for minimum effective dose causing statistically significant potentiation of the methamphetamine-induced stereotype: i.p., 1 hour before methamphetamine 5 mg/Kg i.p., rats observed every 30 minutes until 5 hours. In kind it is in vivo, rats (male Wistar strain, aged 6 weeks). The method, then:
The rats were placed in separate plastic cages for 1 hour to be accustomed to the experimental conditions, then the tested compounds were given intraperitoneally followed after 1 hour by an intraperitoneal application of methamphetamine (5 mg/Kg).

The nature of another data set: in vivo. Particulars: mouse, po, male, 25-35 g. An excerpt: Acute toxicity (ICR-JCR strain, male, weighing 25-35 g, p.o.)
Data set [5] has as its system reserpine induced ptoses and hypothermia. In words: Competitive effects on reserpine induced ptoses and hypothermia in mice (Experiment 3). The data set is classed as in vivo, mice (male ICR-JCL strain weighing 25-35 g). As to conditions: 10 mg/Kg, p.c. (so in the source), simultaneously with reserpine 2 mg/Kg i.p.; scored 0.5-6 hours; 10 mice. Here is the method: The tested compound (10 mg/Kg, p.c.) and reserpine (2 mg/Kg, i.p.) were applied simultaneously to the mice and the degree of ptosis was scored according to the method of Ruben et al. (J. Pharmacol. Exptl. Ther., 120, 125, 1957) at 0.5, 1, 2, 3, 4, 5 and 6 hours after dosages, respectively.
Rectal temperature of the mice were also measured together with those of non-reserpinized mice. Inhibitory percent of the degree of ptosis and differences between rectal temperatures of reserpinized and non-reserpinized mice due to the tested compound are shown in the following Table. For each experiment 10 mice were used.

Structures can show the parent of a compound that is named as a salt.

The term ED50 denotes the dose that gives a 50% effect, or the effect in half of the subjects. Higher therefore signals a need for a large dose. A word on the LD50: it is the dose at which mortality reaches 50%.

On to `C1=Cc2c(cccc2OCC2CNCCO2)C1.Cl` (stereo not shown) [2-(4-indenyloxymethyl)-morpholine hydrochloride], for which it took a dose of 5 mg/kg to reach the 50% effect level in data set [1] (Rattus norvegicus, ip, 1 hour before methamphetamine 5 mg/kg i.p.) (ED50).

Regarding `C1=Cc2cccc(OCC3CNCCO3)c2C1.Cl` (stereo not shown) [2-(7-indenyloxymethyl)morpholine hydrochloride], the “potency compared with 2-(4-indenyloxymethyl) morpholine hydrochloride” value in data set [2] is “more potent than the latter”. Further, the “relative potency vs 2-(4-indenyloxymethyl) morpholine hydrochloride” value in data set [1] (ratio of ED50, i.p.) was 2.5 times.

`C1=Cc2cccc(OCC3CNCCO3)c2C1` (stereo not drawn) [7-isomer acid addition salt, acid addition salt of 2-(7-indenyloxymethyl) morpholine]: the “pharmacological activity compared with the 4-isomer acid addition salt” value in data set [3] was “more preferable pharmacological activity than the 4-isomer acid addition salt”.

For the compound `CN(C)CCC=C1c2ccccc2CCc2ccccc21` [Amitriptyline, reference compound], the minimal effective dose in data set [4] was 10 mg/kg.

On to `CC(C)N1CCOC(COc2cccc3c2CCC3)C1` (stereo not shown) [Compound C, 2-(4-indanyloxymethyl)-4-isopropyl morpholine, reference compound], for which the “minimum effective dose causing statistically significant potentiation of the methamphetamine-induced stereotype” value in data set [4] is on record as “non effective”.

Take `CC(C)N1CCOC(COc2cccc3c2CC=C3)C1` (stereo not shown) [Example 1, 4-isopropyl-2-(7-indenyloxymethyl)morpholine]: in data set [4], the minimal effective dose is 0.3 mg/kg. The same compound returned an LD50 in the data set “in vivo” of 650 mg/kg. Besides, the “Inhibition of ptosis (%)” value in data set [5] is listed as 14.5%.

For `CCCCN1CCOC(COc2cccc3c2CC=C3)C1` (stereo not shown) [Example 2, 4-butyl-2-(7-indenyloxymethyl)-morpholine], the minimal effective dose in data set [4] is 3 mg/kg.

As to `CCN1CCOC(COc2cccc3c2CC=C3)C1` (stereo not shown) [Example 5, 4-ethyl-2-(7-indenyloxymethyl)morpholine], in data set [4], the minimal effective dose came out at 0.3 mg/kg. In “in vivo”, this compound displayed an LD50 of 700 mg/kg.

For the compound `CCCN1CCOC(COc2cccc3c2CC=C3)C1` (stereo not shown) [Example 6, 2-(7-indenyloxymethyl)-4-propylmorpholine], the minimal effective dose in data set [4] stood at 1 mg/kg.

As for `CC1=CCc2c(OCC3CNCCO3)cccc21` (stereo not shown) [Example 11, 2-(3-methyl-7-indenyloxymethyl)morpholine], the minimal effective dose in data set [4] worked out at 0.3 mg/kg.

As for `CC1=CCc2c(OCC3CN(C(C)C)CCO3)cccc21` (stereo not shown) [Example 12A, 4-isopropyl-2-(3-methyl-7-indenyloxymethyl)morpholine], the minimal effective dose in data set [4] amounted to 0.03 mg/kg.

As to `CC1=CCc2cccc(OCC3CN(C(C)C)CCO3)c21` (stereo not shown) [Example 12B, 4-isopropyl-2-(3-methyl-4-indenyloxymethyl)morpholine], the minimal effective dose in data set [4] was determined as 0.3 mg/kg.

In the case of `CCOc1ccccc1OCC1CNCCO1` (stereo not shown) [Viloxazine HCl, 2-(2-ethoxyphenoxymethyl) morpholine, reference compound], the “minimum effective dose causing statistically significant potentiation of the methamphetamine-induced stereotype” value in data set [4] is listed as “non effective”. Moreover, the “Inhibition of ptosis (%)” value in data set [5] is 6.0%.

As for “mixture of 2-(4-indenyloxymethyl)morpholine and 2-(7-indenyloxymethyl) morpholine [Example 10]”, the “minimum effective dose causing statistically significant potentiation of the methamphetamine-induced stereotype” value in data set [4] amounted to 0.3 mg/kg.
